In ChEMBL document CHEMBL1201862, “PubChem BioAssay data set” (2004):
Calls of active or inactive are those of the source.

Columns and labels:
[1] = biological target: Phospholipase A2 (Homo sapiens, UniProt P04054); type: functional;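 further: confirmatory dose-response counterscreen on phospholipase A2, testing hits that came from an ultra-high-throughput screen for ATG4B inhibitors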
[2] = biological target: T1, Cysteine protease ATG4B (Homo sapiens, UniProt Q9Y4P1); type: functional;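 further: Fluorescence-based dose-response confirmation assay measuring inhibition of ATG4B activity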
T1 sequence (Q9Y4P1 whole entry): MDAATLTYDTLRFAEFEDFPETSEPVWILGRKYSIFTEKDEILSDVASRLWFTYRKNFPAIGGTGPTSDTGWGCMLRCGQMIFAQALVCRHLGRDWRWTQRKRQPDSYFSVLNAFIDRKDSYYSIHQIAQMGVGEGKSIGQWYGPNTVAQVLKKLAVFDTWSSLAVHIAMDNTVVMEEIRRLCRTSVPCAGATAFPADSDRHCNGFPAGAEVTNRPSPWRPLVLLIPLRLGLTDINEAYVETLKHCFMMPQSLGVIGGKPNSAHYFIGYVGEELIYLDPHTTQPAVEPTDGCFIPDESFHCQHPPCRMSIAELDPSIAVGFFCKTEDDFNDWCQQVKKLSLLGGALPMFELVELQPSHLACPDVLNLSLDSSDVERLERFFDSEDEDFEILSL

[3] = biological target: T2, RNA-binding protein pos-1 (Caenorhabditis elegans, UniProt G5EF15); assay: inhibitors of POS-1/mex-3 RNA binding, dose response, biochemical, fluorescence polarization (AID 1964);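 further: purified POS-1 fused to maltose binding protein made in E. coli; potency of compounds blocking POS-1 binding to fluorescent RNA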
T2 sequence (G5EF15 whole entry): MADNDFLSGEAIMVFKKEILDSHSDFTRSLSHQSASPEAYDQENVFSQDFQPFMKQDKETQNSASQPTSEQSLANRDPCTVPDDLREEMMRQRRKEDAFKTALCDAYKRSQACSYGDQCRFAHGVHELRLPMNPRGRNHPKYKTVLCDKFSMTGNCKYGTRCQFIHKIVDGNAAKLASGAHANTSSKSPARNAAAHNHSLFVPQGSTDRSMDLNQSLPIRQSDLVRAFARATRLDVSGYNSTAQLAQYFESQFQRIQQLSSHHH

[4] = biological target: T3, Zinc finger protein mex-5 (Caenorhabditis elegans, UniProt Q9XUB2); assay: MEX-5/TCR-2 RNA interaction inhibitors, dose response, biochemical, C. elegans, fluorescence polarization (AID 1960)
T3 sequence (Q9XUB2 whole entry): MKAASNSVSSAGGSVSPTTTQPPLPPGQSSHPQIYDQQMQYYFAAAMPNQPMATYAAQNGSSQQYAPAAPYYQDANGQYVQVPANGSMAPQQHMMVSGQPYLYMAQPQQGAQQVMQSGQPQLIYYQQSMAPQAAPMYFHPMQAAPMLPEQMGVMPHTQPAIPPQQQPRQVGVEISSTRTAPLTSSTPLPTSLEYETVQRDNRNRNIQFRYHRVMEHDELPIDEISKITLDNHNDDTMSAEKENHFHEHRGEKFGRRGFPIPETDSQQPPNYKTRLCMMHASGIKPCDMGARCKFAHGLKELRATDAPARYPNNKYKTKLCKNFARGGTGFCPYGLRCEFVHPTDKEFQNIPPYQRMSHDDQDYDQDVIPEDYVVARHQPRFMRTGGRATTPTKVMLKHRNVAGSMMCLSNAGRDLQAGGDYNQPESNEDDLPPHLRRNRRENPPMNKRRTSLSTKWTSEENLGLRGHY

[5] = HEp-2 cell cytotoxicity, dose response, cytotoxicity control for RSV inhibitor project, HTS (AID 2410); type: functional; conditions: human respiratory syncytial virus
[6] = LGR2 antagonists, dose response, cell-based, HEK293, CRE-luciferase reporter, cherry pick, set 2 (AID 743343); type: functional;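 further: transfected cells were stimulated with diluted bursicon conditioned medium after compound addition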
[7] = cells
[8] = biological target: Cytochrome P450 3A4 (Homo sapiens, UniProt P08684); conditions: Potency;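 further: confirmatory qHTS run detecting inhibitors and substrates of CYP3A4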
[9] = biological target: T4, Aminopeptidase N (Plasmodium falciparum FcB1/Columbia, UniProt O96935); assay: P. falciparum M1AAP inhibitors, biochemical, fluorogenic H-Leu-NHMec substrate, 1536-well (AID 1445); design: species or system Plasmodium falciparum 3D7, 3D7
T4 sequence (O96935 whole entry): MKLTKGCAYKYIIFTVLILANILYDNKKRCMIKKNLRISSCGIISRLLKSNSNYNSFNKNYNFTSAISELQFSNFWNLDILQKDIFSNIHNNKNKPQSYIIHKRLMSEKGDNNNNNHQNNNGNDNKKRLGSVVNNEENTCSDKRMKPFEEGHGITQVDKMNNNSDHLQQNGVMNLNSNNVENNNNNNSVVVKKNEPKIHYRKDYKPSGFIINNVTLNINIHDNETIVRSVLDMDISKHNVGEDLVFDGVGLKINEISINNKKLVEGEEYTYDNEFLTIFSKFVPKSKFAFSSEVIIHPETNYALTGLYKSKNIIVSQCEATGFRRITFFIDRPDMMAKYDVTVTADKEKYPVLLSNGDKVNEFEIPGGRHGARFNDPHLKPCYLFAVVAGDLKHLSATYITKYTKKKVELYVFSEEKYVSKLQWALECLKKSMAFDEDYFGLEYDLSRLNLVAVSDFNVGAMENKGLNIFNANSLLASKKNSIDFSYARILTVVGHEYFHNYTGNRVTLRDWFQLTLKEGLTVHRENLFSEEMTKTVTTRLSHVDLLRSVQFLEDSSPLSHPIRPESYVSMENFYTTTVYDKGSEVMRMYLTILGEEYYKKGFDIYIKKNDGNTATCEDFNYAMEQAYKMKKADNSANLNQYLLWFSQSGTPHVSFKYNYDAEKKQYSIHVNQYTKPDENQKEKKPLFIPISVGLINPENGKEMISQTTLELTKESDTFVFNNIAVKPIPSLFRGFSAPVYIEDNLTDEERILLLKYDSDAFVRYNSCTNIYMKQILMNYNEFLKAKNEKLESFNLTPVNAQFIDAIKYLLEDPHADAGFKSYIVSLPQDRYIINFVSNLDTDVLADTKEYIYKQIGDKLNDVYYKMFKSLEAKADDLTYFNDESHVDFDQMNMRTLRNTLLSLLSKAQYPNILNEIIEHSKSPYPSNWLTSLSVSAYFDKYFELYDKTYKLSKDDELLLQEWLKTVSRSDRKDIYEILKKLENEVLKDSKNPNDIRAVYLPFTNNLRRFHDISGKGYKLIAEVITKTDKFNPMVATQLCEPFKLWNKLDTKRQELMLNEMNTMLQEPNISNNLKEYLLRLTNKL

[10] = biological target: Genome polyprotein (dengue virus type 2, UniProt P29990); assay: Dengue-2 NS5 methyltransferase inhibitors, primary screen, biochemical, confirmation dose response (AID 588689); type: functional
[11] = miR-122 activators in hepatoma reporter cells, dose response, cell-based, Huh7 psiCHECK-miR122, Renilla luciferase, cherry-picked (AID 651956); type: functional;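 further: huh7 hepatoma cells stably carrying a psiCHECK-2 miR-122 sensor plasmid; renilla luciferase signal reporting endogenous miR-122 activity after 48 h compound exposure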
[12] = P. falciparum Dd2 growth inhibitors, dose response, SYBR Green, dry powder samples (AID 1159566); type: functional, cell-based;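 further: potency for growth inhibition with lower SYBR green DNA signal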
[13] = HepG2 cell cytotoxicity, dose response, cytotoxicity control, plate reader, dry powder samples (AID 1159569); type: functional, cell-based;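 further: inhibitor potency with signal falling toward the positive control level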
[14] = biological target: Paired box protein Pax-8 (Homo sapiens, UniProt Q06710); assay: inhibitors of PAX8-driven TPO luciferase reporter, dose response, RMG-I cells, cherry-pick (AID 687027); type: functional, cell-based;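 further: luciferase reporter driven by Pax8 target thyroperoxidase promoter measured by SteadyGlo luminescence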
[15] = P. falciparum ATP4 D1247Y mutant growth inhibitors, dose response, NITD609-resistant line, SYBR Green, dry powder (AID 1159571); type: functional, cell-based;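 further: parasites synchronized at ring stage by sorbitol before testing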
[16] = P. falciparum Dd2 growth inhibitors, dose response, SYBR Green, cherry-picked samples (AID 1159567); type: functional, cell-based
[17] = P. falciparum 3D7-ScDHODH growth inhibitors, dose response, SYBR Green, dry powder samples (AID 1159570); type: functional, cell-based;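 further: parasite growth measured after 72 hours of compound exposure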

Chain of Genome polyprotein (P29990 2492-3391 limits assumed): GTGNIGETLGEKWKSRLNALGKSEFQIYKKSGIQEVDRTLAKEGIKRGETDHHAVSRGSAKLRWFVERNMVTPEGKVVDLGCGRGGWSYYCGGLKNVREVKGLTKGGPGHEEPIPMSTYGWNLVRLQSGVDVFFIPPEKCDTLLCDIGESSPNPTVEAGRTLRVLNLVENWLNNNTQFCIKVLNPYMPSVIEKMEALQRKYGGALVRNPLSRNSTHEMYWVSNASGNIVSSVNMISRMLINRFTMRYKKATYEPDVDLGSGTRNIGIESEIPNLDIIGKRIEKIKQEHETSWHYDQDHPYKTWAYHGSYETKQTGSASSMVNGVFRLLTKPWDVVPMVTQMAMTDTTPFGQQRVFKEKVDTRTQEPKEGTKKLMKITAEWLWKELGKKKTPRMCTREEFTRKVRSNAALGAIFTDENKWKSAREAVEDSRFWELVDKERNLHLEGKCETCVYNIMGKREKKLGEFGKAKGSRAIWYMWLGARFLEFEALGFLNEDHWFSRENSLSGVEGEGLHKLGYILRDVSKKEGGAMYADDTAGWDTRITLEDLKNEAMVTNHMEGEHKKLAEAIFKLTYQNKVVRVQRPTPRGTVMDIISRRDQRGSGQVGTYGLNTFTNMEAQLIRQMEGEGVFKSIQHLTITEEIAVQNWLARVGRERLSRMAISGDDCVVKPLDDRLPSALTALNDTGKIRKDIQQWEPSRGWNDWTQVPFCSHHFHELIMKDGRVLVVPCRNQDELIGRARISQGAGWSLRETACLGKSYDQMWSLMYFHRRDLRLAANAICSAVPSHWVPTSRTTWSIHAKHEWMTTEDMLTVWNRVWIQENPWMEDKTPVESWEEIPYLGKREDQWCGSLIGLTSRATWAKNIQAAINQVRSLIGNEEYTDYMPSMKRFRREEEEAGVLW
Chain of Phospholipase A2 (P04054 whole entry): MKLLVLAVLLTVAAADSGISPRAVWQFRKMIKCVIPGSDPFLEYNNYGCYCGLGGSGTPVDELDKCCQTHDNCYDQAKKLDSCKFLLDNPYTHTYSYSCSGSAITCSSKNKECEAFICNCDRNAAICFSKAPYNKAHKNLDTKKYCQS
Chain of Paired box protein Pax-8 (Q06710 whole entry): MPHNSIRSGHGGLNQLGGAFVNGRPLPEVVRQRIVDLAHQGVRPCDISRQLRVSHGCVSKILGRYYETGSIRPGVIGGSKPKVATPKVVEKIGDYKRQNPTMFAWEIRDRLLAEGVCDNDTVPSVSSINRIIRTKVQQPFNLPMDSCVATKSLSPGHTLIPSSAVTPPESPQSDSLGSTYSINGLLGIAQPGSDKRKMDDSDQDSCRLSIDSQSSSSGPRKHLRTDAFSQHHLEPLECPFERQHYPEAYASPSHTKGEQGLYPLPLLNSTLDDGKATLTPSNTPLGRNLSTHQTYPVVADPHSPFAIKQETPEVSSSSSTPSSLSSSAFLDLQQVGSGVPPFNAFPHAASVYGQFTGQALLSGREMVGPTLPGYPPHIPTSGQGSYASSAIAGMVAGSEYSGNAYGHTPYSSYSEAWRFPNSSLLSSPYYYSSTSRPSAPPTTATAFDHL
Chain of Cytochrome P450 3A4 (P08684 whole entry): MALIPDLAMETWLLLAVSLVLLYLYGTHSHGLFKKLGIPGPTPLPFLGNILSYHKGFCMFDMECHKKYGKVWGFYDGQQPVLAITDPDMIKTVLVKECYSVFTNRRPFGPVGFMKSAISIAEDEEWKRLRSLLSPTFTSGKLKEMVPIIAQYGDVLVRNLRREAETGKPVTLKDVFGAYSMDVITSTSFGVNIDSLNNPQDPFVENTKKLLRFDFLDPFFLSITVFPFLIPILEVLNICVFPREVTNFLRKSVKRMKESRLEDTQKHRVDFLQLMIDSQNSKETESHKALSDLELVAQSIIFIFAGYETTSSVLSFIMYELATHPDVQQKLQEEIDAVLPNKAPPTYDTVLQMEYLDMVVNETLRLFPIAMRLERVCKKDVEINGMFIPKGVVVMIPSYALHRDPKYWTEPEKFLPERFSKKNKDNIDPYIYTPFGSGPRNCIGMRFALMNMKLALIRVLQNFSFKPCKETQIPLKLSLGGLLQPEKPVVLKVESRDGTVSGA

Compound	AC50 [12]	AC50 [13]	AC50 [15]	AC50 [16]	AC50 [17]	further results
O=C1Nc2cc(Cl)c(Cl)cc2N(O)N1c1cc(Cl)cc(Cl)c1	–	–	–	–	–	IC50 [1]: 13.7 µM (active); IC50 [2]: 14.5 µM (active)
O=C(c1ccc(Br)o1)N1CCN=C1SCc1cccc(F)c1	–	–	–	–	–	EC50 [3]: > 300 µM (not active); EC50 [4]: > 300 µM (not active)
CC(C)(C)NC(=O)c1cccc(NC(=O)c2ccc3c(c2)C(=O)N(C(C)(C)C)C3=O)c1	–	–	–	–	–	CC50 [5]: > 50 µM (active); AC50 [6]: 37.3 µM (active); IC50 [7]: 39.8 µM (active)
COC(=O)N1[C@H](C)C=C[C@]1(Cc1ccccc1)C(=O)NCc1ccc(N(C)C)cc1	–	–	–	–	–	AC50 [8]: 1 µM (inconclusive)
O=C(Nc1ccc(Cl)cc1C(=O)O)c1ccc2c(c1)C(=O)N(Cc1ccco1)C2=O	–	–	–	–	–	IC50 [9]: 137 µM (active); IC50 [10]: 46.3 µM (active)
C[C@H](CO)N1C[C@H](C)[C@@H](CN(C)C(=O)C2CCOCC2)Oc2cc(C#Cc3ccncc3)ccc2S1(=O)=O	–	–	–	–	–	AC50 [11]: 3.77 µM (active)
CCCNC(=O)C[C@@H]1CC[C@@H]2[C@H](COc3ccc(NS(=O)(=O)c4ccccc4C)cc3C(=O)N2C)O1	–	–	–	–	–	AC50 [11]: 56 µM (active)
C[C@@H]1CN([C@@H](C)CO)S(=O)(=O)c2ccc(C#CC3CC3)cc2O[C@@H]1CN(C)C(=O)c1cccc(F)c1	–	–	–	–	–	AC50 [11]: 8.3 µM (active)
C[C@H]1CN([C@@H](C)CO)C(=O)c2c(c3ccccc3n2C)-c2ccccc2CO[C@@H]1CN(C)Cc1ccc(-c2ccccc2)cc1	1.49 µM (active)	22.2 µM (active)	1.99 µM (active)	2.75 µM (active)	2.75 µM (active)	AC50 [14]: 24.9 µM (active)
N#Cc1cccc(-c2ccc3c(c2)[C@H]2[C@H](CCN2Cc2ccncc2)[C@@H](CO)N3)c1	1.4 µM (active)	> 100 µM (inactive)	3.28 µM (active)	1.99 µM (active)	1.57 µM (active)	–
C[C@H](CO)N1C[C@H](C)[C@H](CN(C)CC2CC2)Oc2ccc(NC(=O)Nc3cccc4ccccc34)cc2CC1=O	1.25 µM (active)	48.5 µM (active)	2.47 µM (active)	2.51 µM (active)	2.51 µM (active)	–
Fc1cccc(-c2ccc([C@@H]3[C@@H]4CN(Cc5cncnc5)C[C@H]3N4)cc2)c1	1.6 µM (active)	18.8 µM (active)	2.67 µM (active)	1.36 µM (active)	4.51 µM (active)	–
